Assay [1] has as its target T1, NF-kB (Homo sapiens, UniProt P19838+Q04206).
T1 construct: endogenous in cells; host or cells: Jurkat (human T lymphoid cell line)
Briefly: TPA-induced NF-kB activation in Jurkat cells, EMSA of whole-cell extracts. In kind it is cell-based. The settings on record: then TPA 25 ng/ml, extracts after 3 hours; for inhibition of TPA-induced NF-kB activation (specificity): 500 uM for 1 hour, FIG. 1C. From the text: (§1) Inhibition tests have been carried out in type T lymphoid human cells (Jurkat cell line), as well as in other human cell lines. NF-kB activation was stimulated with 12-o-tetradecanoyl-phorbol-13-acetate (TPA). 2-Cyclopenten-1-one was also effective in inhibiting NF-kB activation after other types of stimulation, including stimulation by tumor necrosis factor alpha or viral infection, and in different types of human cells (data not shown).
The effect of the treatment with 2-cyclopenten-1-one on NF-kB activation by TPA has been tested in Jurkat cells by using the procedures described hereinbelow and shown in FIG. 1.
(§2) The cells were prepared according to the method described in C. Amici et al. (Cancer Research 55, 4452-4457, 1995).
(§3) The cells were treated with 2-cyclopenten-1-one at different concentrations (125-1000 μM) for 1 hour and then were stimulated with TPA (25 ng/ml).
(§4) After 3 hours the whole-cell extracts were prepared and subjected to EMSA (Electrophoretic Mobility Shift Assay) as described for NF-kB in U. Zabel et al. (J. Biol. Chem. 266: 242, 1991) and HSF in C. Amici et al. (Cancer Res. 55: 4452, 1995), to determine NF-kB and HSF activation respectively.
(§5) The cells were treated for 1 hour with the same concentration (500 uM) of: 2-cyclopenten-1-one, cyclopentanone or cyclopentene, and then were stimulated with TPA (25 ng/ml). C represents the non-TPA-stimulated control. After 3 hours the whole-cell extracts were prepared and subjected to EMSA to verify the activation of NF-kB (FIG. 1C) and of HSF (FIG. 1D) respectively.

Assay [2] deals with HSF (Heat Shock Transcription Factor). In words: HSF activation in TPA-stimulated Jurkat cells, EMSA of whole-cell extracts. The settings on record: then TPA 25 ng/ml, extracts after 3 hours; for activation of HSF (specificity): 500 uM for 1 hour, FIG. 1D. The format is cell-based, human. Here is the method: as §2, §3, §4
The positions of the complex HSF-DNA (HSF), the HSF-DNA constitutive activity (CHBA) and the proteins-DNA non-specific interactions (ns) are indicated in FIG. 1B. The line “econtrol” indicates the non-TPA-stimulated cells as a control of non-activated NF-kB.
as §5
(Mobility shift assays separate free from complexed probe on a gel.)

For assay [3], the target named is T1, NF-kB. In words: NF-kB activation after other types of stimulation (tumor necrosis factor alpha or viral infection) in different human cells. The format is cell-based. The settings on record: stimulation by tumor necrosis factor alpha or viral infection, data not shown.
From the text: as §1

Molecules are shown by their SMILES.

From US6696498B2, “2-cyclopenten-1-one and its derivatives as inhibitors of the NF-kB factor” (Consiglio Nazionale Della Richerche, priority 1996, dated 2004) come the findings set out here.

T1 sequence (P19838 1-433 limits assumed): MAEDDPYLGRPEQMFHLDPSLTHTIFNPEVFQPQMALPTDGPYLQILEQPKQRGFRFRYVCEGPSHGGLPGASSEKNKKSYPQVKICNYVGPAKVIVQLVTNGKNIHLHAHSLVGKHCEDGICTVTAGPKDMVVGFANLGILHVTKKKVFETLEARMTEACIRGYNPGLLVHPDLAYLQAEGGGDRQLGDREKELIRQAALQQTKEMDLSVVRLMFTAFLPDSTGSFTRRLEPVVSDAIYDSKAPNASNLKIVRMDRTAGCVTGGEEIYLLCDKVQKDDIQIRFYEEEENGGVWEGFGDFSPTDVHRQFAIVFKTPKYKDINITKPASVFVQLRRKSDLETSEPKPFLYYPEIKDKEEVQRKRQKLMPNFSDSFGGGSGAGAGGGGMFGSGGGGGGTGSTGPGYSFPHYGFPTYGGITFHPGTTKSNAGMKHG
T1 sequence (Q04206 whole entry): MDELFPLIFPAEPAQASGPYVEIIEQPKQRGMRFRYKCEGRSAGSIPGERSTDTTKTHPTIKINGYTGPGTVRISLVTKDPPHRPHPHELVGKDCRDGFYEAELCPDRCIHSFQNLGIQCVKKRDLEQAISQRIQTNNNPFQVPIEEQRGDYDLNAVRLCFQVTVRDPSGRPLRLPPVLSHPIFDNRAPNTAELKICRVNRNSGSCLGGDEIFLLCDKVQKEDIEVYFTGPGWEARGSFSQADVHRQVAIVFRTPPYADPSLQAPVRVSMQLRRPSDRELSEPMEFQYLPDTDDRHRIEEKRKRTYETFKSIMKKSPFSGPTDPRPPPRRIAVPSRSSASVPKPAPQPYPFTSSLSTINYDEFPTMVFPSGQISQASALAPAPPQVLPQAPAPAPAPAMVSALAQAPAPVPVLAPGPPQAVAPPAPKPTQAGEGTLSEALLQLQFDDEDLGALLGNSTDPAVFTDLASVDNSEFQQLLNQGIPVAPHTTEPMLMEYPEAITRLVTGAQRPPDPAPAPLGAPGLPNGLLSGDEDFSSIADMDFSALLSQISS

For the compound `O=C1CCCC1` [cyclopentanone, reference compound], the “inhibition of TPA-induced NF-kB activation (specificity)” value (“inhibition … (specificity)” below) on NF-kB [1] is recorded as “do not inhibit”. The “activation of HSF (specificity)” value in assay [2] was “do not activate”.

Consider `C1=CCCC1` [cyclopentene, reference compound], for which the “inhibition … (specificity)” value on NF-kB [1] is listed as “do not inhibit”. Also, in assay [2], the “activation of HSF (specificity)” value is “do not activate”.

On to `O=C1C=CCC1` [2-cyclopenten-1-one], for which the “inhibition of NF-kB activation by TPA” value against NF-kB [1] (125 uM for 1 hour, FIG. 1A) is on record as “able to inhibit”. Besides, the “inhibition … (specificity)” value at NF-kB [1] was “inhibits”. The “NF-kB band (NF-kB-DNA complex) in EMSA” value on NF-kB [1] (500 um for 1 hour, FIG. 1A) is listed as “absent”. In addition, the “inhibition of NF-kB activation after other types of stimulation” value on NF-kB [3] was “effective”. Moreover, in assay [2] (125-1000 μM for 1 hour, FIG. 1B), the “concentration from which activation of HSF is evident” value was at least 125 µM.
